Experimental data published in US20250144131A1, “POLYSACCHARIDE COMPOUND WITH A DEFINED MOLECULAR STRUCTURE FOR THE TREATMENT OF PULMONARY FIBROSIS” (SHENZHEN YANDAI INVESTMENT CO., LTD, priority 2023, published 2025).
Marks after values point to notes of the source that are not given here.

Assays:
LLC tumors = assay: Antitumor effect in LLC-bearing mice (tumor volume, relative tumor volume, T/C, tumor coefficient, tumor growth inhibition rate); format: in vivo, C57 mice
Excerpt: Tumor volume measurement: […] Relative tumor volume (RTV)=TVt/TV0, where TV0 is the tumor volume at the time of administration, and TVt is the tumor volume at each measurement. Relative tumor growth rate T/C (%)=TRTV/CRTV×100%, where TRTV is the RTV for the treatment group and CRTV is the RTV for the control group. Tumor growth inhibition rate (%)=(model control group tumor weight−treatment group tumor weight)/model control group tumor weight×100%.

4T1 breast cancer cells = assay: Antitumor effect in 4T1 breast tumor-bearing mice (tumor volume, relative tumor growth inhibition rate, tumor index, tumor growth inhibition rate); format: in vivo, BALB/c mice
Description: Longest and shortest diameters of tumors were measured every three days to calculate tumor volume, and mouse weights were recorded every three days. At the end of the experiment, tumors, spleens, and thymuses were harvested and weighed to calculate tumor, spleen, and thymus indices. […] Where TRTV is the relative tumor volume in the experimental group, and CRTV is the relative tumor volume in the model control group. Relative tumor volume (RTV)=Vt/V0, where Vt is the tumor volume on day t of dosing, and V0 is the tumor volume at the time of grouping. Evaluation criteria: […] Where T represents the average tumor weight in the treatment group, and C represents the average tumor weight in the model control group. Evaluation criteria: […]

[1] = Mortality and body weight of LLC-bearing mice
Description: LLC cells in logarithmic growth phase at 1×10^7/mL were inoculated at 0.2 mL into the right axilla of 10 purchased normal male C57 mice. Tumor growth was monitored, and tumor-bearing mice were prepared. Once the tumor volume in tumor-bearing mice exceeded 200 mm^3, the tumor tissue was aseptically harvested to prepare a tissue cell suspension. This was mixed at a 1:1 (V:V) ratio with culture medium to create a tumor tissue homogenate. This homogenate was injected into the right axilla of 60 male C57 mice at 0.2 mL per mouse. When the tumor volume in these tumor-bearing mice exceeded 100 mm^3, mice with well-grown tumors without ulceration were selected and randomized into groups based on tumor volume as follows: model control group, cisplatin group (4 mg/kg), Kanglaite soft capsule group (1,404 mg/kg), cisplatin+Kanglaite soft capsule group (4+1,404 mg/kg), cisplatin+GLP-4 low-dose group (4+130 mg/kg), and cisplatin+GLP-4 high-dose group (4+1,170 mg/kg), with 8 mice per group. Additionally, 8 mice were selected as a normal control group. The cisplatin group received intraperitoneal injections of cisplatin, and the other groups were administered their respective drug solutions by gavage (20 mL/kg) or intraperitoneal injection (10 mL/kg), once daily for 27 consecutive days. After the last dose, blood was collected from the orbital plexus to test blood WBC, RBC, liver and kidney function indicators (ALT, AST, BUN, CRE), and CD3^+, CD4^+, and CD8^+ levels. Bone marrow smears were examined, and spleens, thymuses, and tumors were weighed. Histopathological examinations were conducted on the tumor, spleen, stomach, and kidneys.
Evaluation of quality of life and survival time in animals: Throughout the experimental process, detailed records were kept for each group of animals regarding weight, mortality, mental state, fur color, smoothness of fur, and fecal form, including incidences of diarrhea (if any).

[2] = Mortality and body weight of 4T1 breast tumor-bearing mice; format: in vivo, BALB/c mice
Description: A suspension of 4T1 breast cancer cells was injected subcutaneously into the left shoulder back of 55 healthy female BALB/c mice to create solid tumor models. When the mean tumor volume reached approximately 240 mm^3, the mice were randomized into groups based on tumor volume, and were administered the respective drugs or drug solvents via oral gavage or intraperitoneal injection over 25 consecutive days. Longest and shortest diameters of tumors were measured every three days to calculate tumor volume, and mouse weights were recorded every three days. At the end of the experiment, tumors, spleens, and thymuses were harvested and weighed to calculate tumor, spleen, and thymus indices.

[3] = test system: CD4+ and CD8+ lymphocyte subtypes; assay: Blood CD3+/CD4+ and CD3+/CD8+ ratios by flow cytometry in orthotopic H22-bearing mice; format: in vivo, C57 mice; conditions: cisplatin 4 mg/kg, Kanglaite soft capsule 1404 mg/kg
Description: CD4^+ and CD8^+ content measurement: After the last dose, lymphocyte subtypes CD3^+/CD4^+ and CD3^+/CD8^+ in the blood were measured using flow cytometry.

[4] = Mortality, survival time and body weight of H22-bearing mice; format: in vivo, C57 mice
Description: A homogenate suspension of H22 hepatoma solid tumors was injected subcutaneously under the axilla of 60 healthy male C57 mice to create a solid tumor model. Once all mouse tumors averaged a volume of about 180 mm^3, mice were randomized into groups based on tumor volume and were administered the respective drugs or drug solvents via oral gavage or intraperitoneal injection for 27 consecutive days. Longest and shortest diameters of tumors were measured every three days to calculate tumor volume, and mouse weights were recorded every three days. At the end of the experiment, tumors, spleens, and thymuses were harvested and weighed to calculate tumor, spleen, and thymus indices.

[5] = D1, cisplatin 4, Kanglaite 1404, GLP-4 low-dose 130 mg/kg
[6] = D4, cisplatin 4, Kanglaite 1404, GLP-4 low-dose 130 mg/kg
[7] = D7, cisplatin 4, Kanglaite 1404, GLP-4 low-dose 130 mg/kg
[8] = D10, cisplatin 4, Kanglaite 1404, GLP-4 low-dose 130 mg/kg
[9] = D13, cisplatin 4, Kanglaite 1404, GLP-4 low-dose 130 mg/kg
[10] = D16, cisplatin 4, Kanglaite 1404, GLP-4 low-dose 130 mg/kg
[11] = D19, cisplatin 4, Kanglaite 1404, GLP-4 low-dose 130 mg/kg
[12] = D22, cisplatin 4, Kanglaite 1404, GLP-4 low-dose 130 mg/kg
[13] = D25, cisplatin 4, Kanglaite 1404, GLP-4 low-dose 130 mg/kg
[14] = 8 per group, cisplatin 4, Kanglaite 1404, GLP-4 low-dose 130 mg/kg

Structure (SMILES): N.N.[Cl][Pt][Cl] [Cisplatin, cisplatin]
- Tumor volume (LLC tumors; [5]): 94.99 ± 11.16
- Relative tumor growth rate (T/C) (LLC tumors; [6]): 81.4%
- Relative tumor volume (LLC tumors; [6]): 1.84
- Tumor volume (LLC tumors; [6]): 150.58 ± 34.35
- Relative tumor growth rate (T/C) (LLC tumors; [7]): 45.5%
- Relative tumor volume (LLC tumors; [7]): 0.10
- Relative tumor growth rate (T/C) (LLC tumors; [8]): 27.3%
- Relative tumor volume (LLC tumors; [8]): 0.09
- Relative tumor growth rate (T/C) (LLC tumors; [9]): 70.2%
- Relative tumor volume (LLC tumors; [9]): 0.40
- Tumor volume (LLC tumors; [9]): 27.36 ± 24.4
- Relative tumor growth rate (T/C) (LLC tumors; [10]): 28.2%
- Relative tumor volume (LLC tumors; [10]): 0.51
- Relative tumor growth rate (T/C) (LLC tumors; [11]): 36.9%
- Relative tumor volume (LLC tumors; [11]): 0.97
- Relative tumor growth rate (T/C) (LLC tumors; [12]): 30.9%
- Relative tumor volume (LLC tumors; [12]): 10.62
- Relative tumor growth rate (T/C) (LLC tumors; [13]): 23.6%
- Relative tumor volume (LLC tumors; [13]): 12.10
- Tumor coefficient (LLC tumors; after last dose, cisplatin 4, Kanglaite 1404, GLP-4 low-dose 130 mg/kg): 7.528 ± 2.567 ^ %
- Tumor growth inhibition rate (LLC tumors; tumor weight vs model control, cisplatin 4, Kanglaite 1404, GLP-4 low-dose 130 mg/kg): 61.6%
- Tumor volume (4T1 breast cancer cells; D0, cisplatin 4 mg/kg): 225.3 ± 65.4 mm^3
- Relative tumor growth inhibition rate (compared to model control group) (4T1 breast cancer cells; D3, cisplatin 4 mg/kg): 17.2%
- Relative tumor growth inhibition rate (compared to model control group) (4T1 breast cancer cells; D6, cisplatin 4 mg/kg): 43.5* %
- Relative tumor growth inhibition rate compared to the model control group (4T1 breast cancer cells; D6 to D25, cisplatin 4, GLP-4 low-dose 130 mg/kg): over 40%
- Relative tumor growth inhibition rate (compared to model control group) (4T1 breast cancer cells; D9, cisplatin 4 mg/kg): 49.1* %
- Relative tumor growth inhibition rate (compared to model control group) (4T1 breast cancer cells; D12, cisplatin 4 mg/kg): 55.7* %
- Relative tumor growth inhibition rate (compared to model control group) (4T1 breast cancer cells; D15, cisplatin 4 mg/kg): 56.9* %
- Relative tumor growth inhibition rate (compared to model control group) (4T1 breast cancer cells; D19, cisplatin 4 mg/kg): 48.8* %
- Relative tumor growth inhibition rate (compared to model control group) (4T1 breast cancer cells; D22, cisplatin 4 mg/kg): 44.1* %
- Relative tumor growth inhibition rate (compared to model control group) (4T1 breast cancer cells; D25, cisplatin 4 mg/kg): 42.1* %
- Tumor volume (4T1 breast cancer cells; D25, cisplatin 4 mg/kg): 2026.4 ± 707^ mm^3
- Tumor growth inhibition rate (%) vs. the model control group (4T1 breast cancer cells; cisplatin 4 mg/kg): 29.6%
- Tumor index (4T1 breast cancer cells; cisplatin 4 mg/kg): 11.5 ± 3.3%
- Peak relative tumor growth inhibition rate compared to the model control group (4T1 breast cancer cells; cisplatin 4, GLP-4 low-dose 130 mg/kg): 56.9%
- Tumor growth inhibition rate compared to the model control group (4T1 breast cancer cells; tumor weight, cisplatin 4, GLP-4 low-dose 130 mg/kg): 29.6%
- Number of deaths [1, 14]: 0
- Number of surviving animals [1, 14]: 8
- Weight [1, 5]: 14.1 ± 0.7 g
- Weight [1, 6]: 14.5 ± 1.1 g
- Mortality rate ([1]; cisplatin 4, Kanglaite 1404, GLP-4 low-dose 130 mg/kg): 0%
- Number of deaths ([2]; 10 per group, cisplatin 4 mg/kg): 0
- Survival time ([2]; 25 days of dosing, cisplatin 4 mg/kg): 25 ± 0 days
- Weight ([2]; D0, cisplatin 4 mg/kg): 18.3 ± 1.3 g
- Weight ([2]; D3, cisplatin 4 mg/kg): 17.7 ± 1.1 g
- Weight ([2]; D6, cisplatin 4 mg/kg): 15.5 ± 1*^ g
- Weight ([2]; D9, cisplatin 4 mg/kg): 15 ± 1.4 g
- Weight ([2]; D12, cisplatin 4 mg/kg): 13.8 ± 0.9 g
- Weight ([2]; D15, cisplatin 4 mg/kg): 15 ± 1.1 g
- Weight ([2]; D19, cisplatin 4 mg/kg): 16.8 ± 1.4 g
- Weight ([2]; D22, cisplatin 4 mg/kg): 18 ± 1.5 g
- Weight ([2]; D25, cisplatin 4 mg/kg): 18.1 ± 1.6 g
- Mortality rate ([2]; cisplatin 4 mg/kg): 0.0%
- CD3^+/CD4^+ [3]: 4.26 ± 0.04
- CD3^+/CD8^+ [3]: 4.21 ± 0.81
- Number of deaths ([4]; 8 per group, cisplatin 3, GLP-4 low-dose 50 mg/kg): 0
- Survival time ([4]; 27 days dosing, cisplatin 3, GLP-4 low-dose 50 mg/kg): 27 ± 0 days
- Weight ([4]; D0, cisplatin 3, GLP-4 low-dose 50 mg/kg): 22.8 ± 1^+ g
- Weight ([4]; D9, cisplatin 3, GLP-4 low-dose 50 mg/kg): 22.2 ± 0.7^+ g
- Weight ([4]; D12, cisplatin 3, GLP-4 low-dose 50 mg/kg): 21.9 ± 0.5^+ g
- Weight ([4]; D15, cisplatin 3, GLP-4 low-dose 50 mg/kg): 21.3 ± 1*^+ g
- Mortality rate ([4]; cisplatin 3, GLP-4 low-dose 50 mg/kg): 0%
